Data reported in US6693134B2, “Bicyclic aromatic chemokine receptor ligands” (Chemokine Therapeutics Corporation, priority 2001, dated 2004).

How the values were obtained:
CXCR-4 [1] = target: T1, CXCR-4 (Homo sapiens, UniProt P61073); assay: Inhibition of binding of I125 labeled SDF-1 to CXCR-4 receptor; conditions: I125 labeled SDF-1 as competitor ligand
Experimental: This example discloses the ability of compounds of the invention, such as naphthoic acid derivatives, such as CTCM226 (1), to inhibit binding of SDF-1 to CXCR-4 receptor. The binding studies were conducted using I^125 labeled SDF-1 as competitor ligand.

CXCR-4 [2] = target: T1, CXCR-4; assay: Inhibition of SDF-1 induced intracellular [Ca2+]i mobilization in THP-1 cells; format: cell-based; design: endogenous in cells; host or cells: THP-1 cells; conditions: Fura-2,AM loaded THP-1 cells; incubated 60 min prior to induction by 10 nM SDF-1
Experimental: A rapid, transient rise in the free cytosolic Ca^2+ concentration ([Ca^2+]i) is one of the events associated with the Chemokine mediated induction of the associated receptors and is assumed to be involved in many of the subsequent cellular reactions. Both Ca^2+ release from intracellular stores and Ca^2+ influx from the extracellular space contribute to the rise in [Ca^2+]i. […] Fura-2,AM loaded THP-1 cells were incubated with CTCM226 for 60 min prior to induction of [Ca^2+]i mobilization by 10 nM SDF-1. Results illustrate the effect of CTCM226 (1) on SDF-1 induced Ca^2+ mobilization.
In accordance with this aspect of the invention, the naphthoic acid derivative, such as compound 1 or corresponding salts may be used for the treatment of a wide range of inflammatory diseases such as gout, arthritis, osteoarthritis, rheumatoid arthritis, and ARDS.

T1 sequence (P61073 whole entry): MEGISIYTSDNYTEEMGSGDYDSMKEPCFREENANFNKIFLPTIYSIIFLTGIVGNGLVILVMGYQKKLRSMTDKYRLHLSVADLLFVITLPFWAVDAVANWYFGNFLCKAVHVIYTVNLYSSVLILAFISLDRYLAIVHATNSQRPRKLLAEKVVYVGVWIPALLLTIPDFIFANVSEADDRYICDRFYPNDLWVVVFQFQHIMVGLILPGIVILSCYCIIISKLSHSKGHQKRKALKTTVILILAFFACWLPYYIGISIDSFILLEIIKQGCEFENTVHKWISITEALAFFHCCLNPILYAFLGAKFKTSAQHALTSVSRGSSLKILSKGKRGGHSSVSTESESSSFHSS

Compound: O=C(O)c1cc2ccccc2cc1O [Compound 1, 3-Hydroxy-2-naphthoic acid]
- IC50 (CXCR-4 [1]): 150 µM
- IC50 (CXCR-4 [2]): 0.6 µM
